Assay results as given in patent US9499478B2, “Substituted cyclopentanes for inducing hair growth” (Allergan, Inc., priority 2011, dated 2016).

Legend:
[1] = In vitro human skin penetration, Franz diffusion chamber; format: in vitro ADME; conditions: for conversion to bimatoprost in the receptor chamber solution / Percentage Dose Applied, Receptor Chamber Solution, Prodrug / Percentage Dose Applied, Upper ⅓ Dermis, Prodrug: 0.03% in Formulation A; for Percentage Dose Applied, Receptor Chamber Solution, Prodrug / Percentage Dose Applied, Upper ⅓ Dermis, Prodrug: applied agent; for Percentage Dose Applied, Upper ⅓ Dermis, Prodrug: dermis at 48 hrs; for conversion to bimatoprost in skin layers: SC/Epi/Dermis layers
Excerpt: Experimental Design. Test material: Dermatomed ex vivo human cadaver posterior trunk skin on 1.0 cm^2 Franz diffusion chamber as known in the art. Test size: 3 skin donors (obtained from New York Firefighters Skin Bank), 3 replicates per donor per formulation. Test formulations: 0.03% active agent (Cmpd IVa, Cmpd IIIb, Cmpd IVb) in Formulation A; control formulation: bimatoprost at 0.03% in Formulation A. Dosing regimen: receptor fluid at 2, 4, 24, and 48 hrs; SC/epidermis and dermis at 48 hrs. Sample analysis: LC/MS-MS to detect bimatoprost and Cmpds IVa, IIIb and IVb.

[2] = microAmes mutagenesis screen; format: cell-based; conditions: with or without metabolic activation
Excerpt: Experimental Design. Cmpds IVa, IIIb, and IVb were subjected to the microAmes screen, as known in the art.

[3] = Dermal tolerability in rats; format: in vivo; conditions: female rats, 3 mg/kg/day daily for 8 days; for change in food consumption or body weight gain (in words): IVb decreases not statistically significant
Procedure: Experimental Design. Female rats were administered either vehicle or one of Cmpds IVa, IIIb, or IVb daily for 8 days. The administered dose was 3 mg/kg/day, at a concentration of 3 mg/mL. Observed data were body weight, viability, food consumption, and dermal observation (skin reaction grading), as known in the art. The vehicle was Formulation A. See Table 1 above.

[4] = tested on: mouse model of hair regrowth; assay: Piliation studies (mouse model of hair regrowth); format: in vivo, mice
Procedure: Experimental Design. C57Black/6J, 7-week old female mice (n=10) were employed in piliation studies. Dorsal hair was shaved (area ˜2 cm×4 cm). Dosing of active agent was once per day (QD) by topical administration for 14 days. Observations were conducted for 42-days to determine onset of new hair growth and day of hair growth completion. Compounds were formulated as either a) 50% propylene glycol, 30% ethanol, 20% water, or b) the formulation of Formulation A described above. The experiments reported for FIGS. 4A-4B, 5A-5B, 6A-6B, 8A-8B, and 9A-9B were conducted using a vehicle with formulation of 50% propylene glycol, 30% ethanol, 20% water. The experiments reported for FIGS. 7A-7B were conducted using a vehicle of Formulation A described above.
Results. For each of FIGS. 4A, 5A, 6A, 7A, 8A and 9A, the histograms depict the day of onset of hair growth. For each of FIGS. 4B, 5B, 6B, 7B, 8B and 9B, the histograms depict the day achieving full hair growth.

[5] = Pharmacokinetic assessment of mouse hair regrowth model (blood and skin); format: in vivo, mice; conditions: 0.03% dermal daily, all measured time points, LC/MS-MS
Procedure: Experimental Design. Female C57BL/6J mice (n=2) were assayed per time point per treatment group. Treatment groups: (1) vehicle; (2) 0.03% Cmpd IVa; (3) 0.03% Cmpd IIIb; (4) 0.03% Cmpd IVb; (5) 0.03% bimatoprost. Treatment dosing: dermal daily application of ˜60 uL test compound solution. Blood and skin pharmacokinetic time points were obtained at day 1 (1, 4, 8 and 24-hrs post-dose); day 2 (24-hrs post-dose); day 14 (24-hrs post-dose); and day 42 (28 days post day 14 dose). Bioanalysis employed LC/MS-MS.

mouse skin = assay: Pathology assessment of mouse hair regrowth model; format: in vivo, mice; conditions: histology, 0.03%; vehicle control still in growth phase
Excerpt: Experimental Design. Histological samples from test subjects employed in the studies described in Example 12 were obtained for pathology assessment.

[6] = MALDI-MS imaging of compound distribution in mouse skin; format: in vivo
Procedure: Rationale. In order to determine the penetration, accumulation and/or differential distribution of bimatoprost and compounds disclosed herein upon dermal administration, MALDI-MS (matrix assisted laser desorption ionization mass spectroscopy) imaging was conducted on explanted samples of mouse skin after topical dermal administration.
Experimental Design. MALDI-MS imaging was conducted on mouse skin strips after administration of bimatoprost or compound disclosed herein once daily for 3 days. Samples of mouse skin were recovered 4 hr after day-3 dosing of compound. Dermal administration was conducted with vehicle, 0.03% bimatoprost, 3% bimatoprost, 0.03% Cmpd IVa, and 3% Cmpd IVa.
FIG. 16A depicts a typical explanted sample of mouse skin for these studies, wherein Cmpd IVa was applied via dermal administration. FIG. 16B depicts the result of MALDI-MS imaging. The intensity of each pixel within FIG. 16B reflects the concentration of Cmpd IVa at the corresponding point in the image depicted in FIG. 16A. FIG. 16C depicts a representative mass spectrum, corresponding to the region of FIG. 16B indicated by the white circle within FIG. 16B. Accordingly, each pixel of the image of FIG. 16B has an associated mass spectrum, providing the amounts of bimatoprost or other administered compound or metabolite thereof.

## CCNC(=O)CCC/C=C\C[C@@H]1[C@@H](/C=C/[C@H](CCc2ccccc2)OC(C)=O)[C@H](O)C[C@@H]1O [Cmpd IVa, 15-acetyl-bimatoprost]
[1]
  conversion to bimatoprost in the receptor chamber solution: observed to convert to bimatoprost
  Percentage Dose Applied, Receptor Chamber Solution, Prodrug: 4.3%
  Percentage Dose Applied, Upper ⅓ Dermis, Prodrug: 3.8%
  conversion to bimatoprost in skin layers: converted to bimatoprost
[2]
  mutagenicity: not mutagenic
[3]
  Body Weight Gain, Mean ± SD: 9.0 ± 3.0 g
  Food Consumption, Mean ± SD: 21.14 ± 1.08 g
  change in food consumption or body weight gain (in words): no significant change
[4]; 0.03% Cmpd IVa
  effectiveness of 0.03% compound compared to 0.1% to 0.3% bimatoprost: approximately equally effective
[4]; vehicle 50% propylene glycol, 30% ethanol, 20% water
  pharmacological efficacy relative to bimatoprost: greater than bimatoprost
[4]; vehicle Formulation A
  pharmacological efficacy relative to bimatoprost: greater than bimatoprost
[5]
  level in the systemic circulation: most undetectable
Mouse skin
  hair cycle phase at day-42: returned to the resting phase
[6]; 3.0% topical dermal administration each
  skin penetration of compound compared with bimatoprost: similar
[6]; after topical dermal administration at 0.03%
  detectability of compound in mouse skin by MALDI-MS imaging: detectable

## CCNC(=O)CCC/C=C\C[C@@H]1[C@@H](/C=C/[C@@H](O)CCc2ccccc2)[C@H](OC(=O)CC)C[C@@H]1O [Cmpd IIIb, 11-propionyl bimatoprost]
[1]
  conversion to bimatoprost in the receptor chamber solution: observed to convert to bimatoprost
  Percentage Dose Applied, Receptor Chamber Solution, Prodrug: 0.8%
  Percentage Dose Applied, Upper ⅓ Dermis, Prodrug: 2.1%
  conversion to bimatoprost in skin layers: converted to bimatoprost
[2]
  mutagenicity: not mutagenic
[3]
  Body Weight Gain, Mean ± SD: 10.0 ± 6.1 g
  Food Consumption, Mean ± SD: 22.8 ± 1.36 g
  change in food consumption or body weight gain (in words): no significant change
[4]; vehicle Formulation A
  pharmacological efficacy relative to bimatoprost: approximately equivalent efficacy
[5]
  level in the systemic circulation: most undetectable
Mouse skin
  hair cycle phase at day-42: returned to the resting phase

## CCNC(=O)CCC/C=C\C[C@@H]1[C@@H](/C=C/[C@H](CCc2ccccc2)OC(=O)CC)[C@H](O)C[C@@H]1O [Cmpd IVb, 15-propionyl-bimatoprost]
[1]
  conversion to bimatoprost in the receptor chamber solution: observed to convert to bimatoprost
  Percentage Dose Applied, Receptor Chamber Solution, Prodrug: 2.1%
  Percentage Dose Applied, Upper ⅓ Dermis, Prodrug: 1.9%
  conversion to bimatoprost in skin layers: converted to bimatoprost
[2]
  mutagenicity: not mutagenic
[3]
  Body Weight Gain, Mean ± SD: 0.3 ± 6.7 g
  Food Consumption, Mean ± SD: 19.19 ± 1.32 g
  change in food consumption or body weight gain (in words): decreases in both food consumption and body weight gain
[4]; among compounds tested
  activity in the time required to regain full hair growth: best activity
[4]; vehicle Formulation A
  pharmacological efficacy relative to bimatoprost: approximately equivalent efficacy
[5]
  level in the systemic circulation: most undetectable
Mouse skin
  hair cycle phase at day-42: returned to the resting phase

## CCNC(=O)CCC/C=C\C[C@@H]1[C@@H](/C=C/[C@@H](O)CCc2ccccc2)[C@H](O)C[C@@H]1O [bimatoprost, (Z)-7-((1R,2R,3R,5S)-3,5-dihydroxy-2-((S,E)-3-hydroxy-5-phenylpent-1-enyl)cyclopentyl)-N-ethylhept-5-enamide, reference compound]
[1]
  Percentage Dose Applied, Receptor Chamber Solution, Prodrug: 1.1%
  Percentage Dose Applied, Upper ⅓ Dermis, Prodrug: 7.0%
[5]
  level in the systemic circulation: most undetectable
Mouse skin
  hair cycle phase at day-42: returned to the resting phase
